Assay results published in article PMC12375981 (Protein Science : A Publication of the Protein Society, 2025).

Assays:
[1] = test system: E166V 3CL^pro; conditions: cited from earlier work
[2] = test system: E166V mutation of 3CL^pro; conditions: cited from earlier work
[3] = molecular target: A191E 3CL^pro (Severe acute respiratory syndrome coronavirus 2, UniProt P0DTD1, A3454E); format: biochemical, SARS‐CoV‐2
[4] = molecular target: T1, S1D 3CL^pro (Severe acute respiratory syndrome coronavirus 2, UniProt P0DTD1, S3264D); format: biochemical, SARS‐CoV‐2
[5] = molecular target: DM (S1D + A191E) 3CL^pro (Severe acute respiratory syndrome coronavirus 2, UniProt P0DTD1, A3454E/S3264D); format: binding, SARS‐CoV‐2
[6] = molecular target: T1, S1D 3CL^pro; format: binding, SARS‐CoV‐2
[7] = molecular target: S1D + A191E 3CL^pro (double mutant, DM) (Severe acute respiratory syndrome coronavirus 2, UniProt P0DTD1, A3454E/S3264D); format: biochemical, SARS‐CoV‐2

Structure (SMILES)	increase in K i [1]	increase in EC50 [2]	reduction in affinity (K i) compared to the WT [3] [fold]	K D [4] [nM]	K D f c [4] [nM]	K D/f c [4] [nM]	f c [4]	inhibitor concentration at which the mutant is more active than the WT [4]	inhibitor concentration for full inhibition [4]	reduction in affinity (K i) compared to the WT [4] [fold]	effect of inhibitor on monomer/dimer peaks [5]	effect of inhibitor on monomer/dimer peaks [6]	K D [7] [nM]	K D f c [7] [nM]	K D/f c [7] [nM]	f c [7]	inhibitor concentration at which the mutant is more active than the WT [7] [nM]	reduction in affinity for the dimer (K i) compared to the WT [7] [fold]
CC(C)(C)[C@H](NC(=O)C(F)(F)F)C(=O)N1C[C@H]2[C@@H]([C@H]1C(=O)N[C@H](C#N)C[C@@H]1CCNC1=O)C2(C)C [nirmatrelvir]	more than 7000 fold	up to 255 fold																
COc1cccc2[nH]c(C(=O)N[C@@H](CC(C)C)C(=O)N[C@@H](C[C@@H]3CCNC3=O)C(=O)COP(=O)(O)O)cc12 [lufotrelvir]			6.4	290 ± 30	6000 ± 700	13 ± 2	21 ± 1	greater than 10 nM	exceeded 1 μM	3.3	eliminated the monomeric peaks	eliminated the monomeric peaks	140 ± 10	2300 ± 300	9 ± 1	16 ± 1	≥ 10	26
